The values that follow come from patent publication US20230405063A1, “USE OF PROBIOTIC COMPONENT AND PHARMACEUTICAL COMPOSITION CONTAINING PROBIOTIC COMPONENT” (CHENGDU KUACHANGAOPU MEDICAL TECHNOLOGY CO., LTD., priority 2020, published 2023).

Structures are written as SMILES.

Format in all cases: in vivo
Assay [1] concerns mouse breast cancer 4T1 cells. The assay can be described thus: Middle-aged and elderly patient model, 4T1 tumors in eight-month-old mice, r′3d/r′21d (Example 14, Table 19). To be noted: single intratumoral injection, 50 l/mouse; for Tumor inhibition rate r′3: day 3 after administration; for Tumor inhibition rate r′21: day 21 after administration. From the text:
(§1) V=0.5×a×b^2, wherein a and b represent the length and width of the local lesion, respectively; Volume of the local lesion (e.g. tumor):
(§2) Local lesion (e.g., tumor) proliferation rate (R)=TV/CV×100, wherein TV and CV are the local lesion volumes in the study group and negative control group, respectively;
(§3) The method for determining the effect of combined drug administration in animal experiments was Burgi method (Burgi Y. Pharmacology; Drug actions and reactions. Cancerres. 1978, 38(2), 284-285). The Burgi method was modified by Zhengjun JIN (Zhengjun JIN, Equal probability and curve and “Q50”, Journal of the Second Shanghai Medical College; 1981, 1, 75-86) with q calculated as: q=EA+B/(EA+EB−EA×EB). In the following examples of the present invention, the combinational pharmaceutical efficacies (drug efficacies) of drug A and drug B co-administration was determined by ratio q of actual pharmaceutical efficacy (drug efficacy)/theoretical pharmaceutical efficacy (drug efficacy) according to Zhengjun JIN method, as follows.
Eight-month-old mice were used as experimental subjects in the middle-aged and elderly patient model, 0.5×10^5 mouse breast cancer 4T1 cells/mouse were injected into the right axilla subcutaneously for transplantation tumor modeling, and the mean tumor volume of successfully modeled nude mice was 117.3 mm^3. The model animals were randomly divided into 18 groups. Each group was administered once by intratumoral injection according to the drug grouping in Table 19 with an injection volume of 50 l/mouse. The local lesion volume (V) was measured on day 3 and day 21 after drug administration, and the tumor inhibition rates (r′3d, r′21d) were calculated at each of time points relative to the negative control group, and the results were shown in the following Table. The drugs to be administered were prepared according to the conventional preparation method for aqueous solution or according to the preparation method in Example 1. The actual/expected ratio q3d for short-term drug efficacy and the actual/expected ratio […] for medium- and long-term drug efficacy were calculated based on the drug efficacies (r′3d, r′21d) at different times (day 3, day 21), respectively.

Assay [2] relates to human hepatoma cells (HepG2). The assay is described as follows: Tumor inhibition in HepG2 tumor-bearing nude mice, probiotic component/methylene blue (Example 7, Table 11). To be noted: dosed twice, interval 7 days, 150 μl/mouse/time, 7th day after final administration, probiotic component = inactivated Saccharomyces cerevisiae.
Excerpt: as §3
Nude mice were used as experimental subjects, and human hepatoma cells (HepG2) were used as modeling cells. […] The model animals were randomly divided into 13 groups, and the drugs were administered according to Table 11. […] Each group was dosed twice with an interval of 7 days, and the injection volume was 150 μl/mouse/time. On the 7th day after final administration, the animals were euthanized, and the tumor tissues were taken out after dissection to determine the tumor weight, and the tumor inhibition rate was calculated relative to the negative control group.

Assay [3] relates to gastric tumor cells (BGC823). The assay is described as follows: Tumor inhibition in BGC823 tumor-bearing nude mice (Example 5, Table 8). To be noted: intratumoral injection once, 150 μl/mouse, 7th day.
Excerpt: as §3
Nude mice were used as experimental subjects, and gastric tumor cells (BGC823) were used as modeling cells, 1×10^5 cells/mouse were injected into the right axilla subcutaneously for transplantation tumor modeling, and the average tumor volume of successfully modeled nude mice was 164.4 mm^3. The model animals were randomly divided into 14 groups, and the drugs according to the pharmacological constitutions in Table 8 were administered via intratumoral injection. Each group was dosed once with an injection volume of 150 μl/mouse; wherein the pharmaceutical compositions of groups 5, 11 were semi-fluid, the pharmaceutical compositions of other groups are liquid. On the 7th day after drug administration, the animals were euthanized, and after dissection, the tumor tissue was taken out to determine the tumor weight, and the tumor inhibition rate (r) was calculated relative to the negative control group. Further, the actual efficacy/expected efficacy ratio q of a drug could also be calculated according to the therapeutic effect (tumor inhibition rate).

Assay [4] relates to breast cancer 4T1 cells. The assay can be described thus: Short-term tumor inhibition in 4T1 tumor-bearing BALB/c mice (Example 9, Table 14). To be noted: dosed twice, 7th day after final administration.
Excerpt: as §3
BALB/c mice were used as experimental subjects, and breast cancer 4T1 cells were used as modeling cells. 0.5×10^6 cells/mouse were injected into the right axilla subcutaneously for transplantation tumor modeling, and the average tumor volume of successfully modeled nude mice was 160.1 mm^3. The model animals were randomly divided into 21 groups, and the drugs were administered by intravenous injection (series A) and intratumoral injection (series B) according to the drugs and doses in Table 14, respectively. All the drugs administered were aqueous liquids, which were formulated according to the method of Example 1. Each group was dosed twice. On the 7th day after final administration, the animals were euthanized, and the tumor tissues were taken out after dissection to determine the tumor weight, and the tumor inhibition rates rA and rB were calculated relative to the corresponding negative control groups in series A and series B.

The test system of assay [5] is mouse embryonic fibroblasts 3T3. The assay can be described thus: Local lesion inhibition in 3T3 fibroblast nodule model in nude mice (Example 6, Table 9). The note with it: dosed twice at interval of 2 days, 150 μl/mouse/time, 7th day after final administration.
Excerpt: as §1, §2, §3
Nude mice were used as experimental subjects, and mouse embryonic fibroblasts 3T3 were used as modeling cells. 2×10^4 cells/mouse were injected into the right axilla subcutaneously for transplantation nodule modeling, and the average volume of tumor-like nodules in successfully modeled nude mice was 171.5 mm^3. The model animals were randomly divided into […], and the drugs were administered according to Table 9. Each group except for groups 21-24 were administered by intraperitoneal injection, intra-nodal injection. The drugs used in groups 21-24 were a composition of non-local administration dosage form (dosage form that a probiotic component and a co-administration substance could be administered separately). The administration route of series A was: intraperitoneal injection of probiotic component+intra-nodal injection of co-administration substance; and the administration route of series B was: intraperitoneal injection of co-administration substance+intra-nodal injection of probiotic component. Each group was dosed twice at an interval of 2 days, with an injection volume of 150 μl/mouse/time. On the 7th day after the final administration, the volume (V) of local lesions comprising fibroblasts was measured, and the relative local lesion inhibition rates (r′A, r′B) were calculated for series A and series B, respectively, as compared with the negative control group. Further, the actual drug efficacy/expected efficacy ratio q could also be calculated according to the therapeutic effect (local lesion inhibition rate).

Regarding `OC[C@H]1OC(O)[C@H](O)[C@@H](O)[C@@H]1O` (some centres unmarked) [20% glucose aqueous solution], in assay [1], the “Tumor inhibition rate r′3” value is reported as 3.1% and the “Tumor inhibition rate r′21” value amounted to 4.3%.
In the case of `OC[C@H]1OC(O)[C@H](O)[C@@H](O)[C@@H]1O` (some centres unmarked) [30% glucose aqueous solution], in assay [1], the “Tumor inhibition rate r′3” value is on record as 20.8% and the “Tumor inhibition rate r′21” value is listed as 8.2%.
Regarding `CN(C)c1ccc2nc3ccc(=[N+](C)C)cc-3sc2c1` [1% methylene blue, methylene blue], the figures for the Tumor inhibition rate in assay [2], in assay [2] (listed as 0.50% methylene blue) and in assay [2] (listed as 3% methylene blue) were 26.4%, 17.7% and 71.1%, respectively. The “Tumor weight (x ± s)” value in assay [2] is 0.186 ± 0.096 g; in assay [2] (listed as 0.15% methylene blue), 0.227 ± 0.107 g; in assay [2] (listed as 0.50% methylene blue), 0.208 ± 0.115 g; in assay [2] (listed as 3% methylene blue) it was 0.073 ± 0.033 g; in assay [3], 0.197 ± 0.062 g. Besides, the “Tumor inhibition rate r” value in assay [3] is listed as 12.5%. Further, the “tumor inhibition rate rA” value in assay [4] (series A: intravenous injection) was 3.7%. Moreover, the “tumor inhibition rate rB” value in assay [4] (series B: intratumoral injection) came out at 13.4%. The “V (x ± s), volume of local lesions, series B” value in assay [5] (intra-nodal injection) is 1.020 ± 0.210 cm^3. For the same molecule, in assay [5] (intraperitoneal injection), the “V (x ± s), volume of local lesions, series A” value was 1.288 ± 0.205 cm^3.
